Key:
[1] = Crystal form after standing at 20° C. to 30° C., examined by powder X-ray diffraction; assay type: physicochemical; settings: left at a temperature between 20° C. and 30° C. for approximately 1 year
Method: (§1) The powder X-ray diffraction spectrum was measured in an angle of diffraction that ranged from 3° to 40°, according to the general test method of the Pharmacopoeia of Japan, using RAD-2B diffractometer (radiation source: CuKα) manufactured by Rigaku Denki. During the measurement, voltage/current was set at 35 kV/20 mA, and the scan speed was set at 5°/min.
(1) The anhydrous tetomilast type B crystal obtained in Reference example 1 (3) was left at a temperature between 20° C. and 30° C. for approximately 1 year, and thereafter, the crystal form thereof was examined by powder X-ray diffraction.

[2] = Transformation of type B crystal to type A crystal while stirred as a suspension in acetone-water, crystal form by powder X-ray diffraction; assay type: physicochemical; settings: 5 g suspended in 40 ml acetone and 10 ml water
Method: as §1
The mixing ratio of a mixture consisting of an anhydrous tetomilast type A crystal and an anhydrous tetomilast type B crystal was obtained by comparing the powder X-ray diffraction spectrum of the above mixture, with the powder X-ray diffraction spectrum of a mixture formed by mixing a pure anhydrous tetomilast type A crystal and a pure anhydrous tetomilast type B crystal at various ratios.
Thermal transformation from an anhydrous tetomilast type B crystal to an anhydrous tetomilast type A crystal was confirmed by the means described in (1) to (3) below:
(§2) (2) 5 g of the anhydrous tetomilast type B crystal obtained in Reference example 1 (3) was suspended in a solution consisting of 40 ml of acetone and 10 ml of water, and the obtained mixture was then stirred at 20° C. At that time, sampling was carried out at intervals of 15 minutes, 30 minutes, 60 minutes, and 120 minutes, and each of the obtained samples was subjected to powder X-ray diffraction to examine the crystal form.
as §2, with “(3)” for “(2)”, “40°” for “20°”, “form. As a result, it could be confirmed that the sample collected after stirring for 15 minutes was a mixture consisting of an anhydrous tetomilast type B crystal and an anhydrous tetomilast type A crystal (A:B=50:50).” for “form.”

For `CCOc1ccc(-c2nc(-c3cccc(C(=O)O)n3)cs2)cc1OCC` [anhydrous tetomilast type B crystal, 2-(3,4-diethoxyphenyl)-4-(2-carboxy-6-pyridyl)thiazole], the “crystal form by powder X-ray diffraction” value [1] was “maintained the form as an anhydrous tetomilast type B crystal”, the “crystal form by powder X-ray diffraction” value ([2]; stirred at 20° C., 15 minutes) was “maintained the form as an anhydrous tetomilast type B crystal” and the “crystal form by powder X-ray diffraction” value ([2]; stirred at 20° C., 30 minutes) was “maintained the form as an anhydrous tetomilast type B crystal”. For the same molecule, the “crystal form by powder X-ray diffraction” value ([2]; stirred at 20° C., 60 minutes) was “maintained the form as an anhydrous tetomilast type B crystal”, the “crystal form by powder X-ray diffraction” value ([2]; stirred at 40° C., 30 minutes) was “changed to an anhydrous tetomilast type A crystal” and the “crystal form by powder X-ray diffraction” value ([2]; stirred at 40° C., 60 minutes) was “changed to an anhydrous tetomilast type A crystal”. For the same molecule, the “crystal form by powder X-ray diffraction” value ([2]; stirred at 40° C., 120 minutes) was “changed to an anhydrous tetomilast type A crystal”.

Reference: patent US9145404B2, “Tetomilast polymorphs” (Otsuka Pharmaceutical Co., Ltd., priority 2006, dated 2015)
